The text below walks through data of patent publication US20100227827A1, “METHOD OF INCREASING TRYPTOPHAN AND NICOTINAMIDE LEVELS IN VIVO” (priority 2006, published 2010).

The nature of data set [1]: Molar ratio from neutralization of free organic acid with hydroxides. In kind it is physicochemical. The conditions noted are these: salt or chelate. As for the experimental part:
Determination of salts and chelates of some naturally occurring polyhydroxylated and polycarboxylated organic acids are provided in Table 1. Experimental molar ratios were calculated from neutralization to pH=7.5 of free protonated organic acid (H^+) with sodium, potassium or ammonium hydroxides.

The conditions of data set [2]: oral human dose 100 mg/kg (50-200 mg/kg); Smith 1982; cited from earlier work.
Data set [3] is described as follows: Single high dose quinic acid time study, serum HPLC. In kind it is in vivo. Conditions: human. As for the experimental part:
Serum samples of 0.2 and 30 ml were collected from blood, and precipitated with either ethanol or trichloroacetic acid (TCA). After clean-up the supernatants were dried (ethanol precipitated) or used directly. A standard curve was prepared using quinic acid (Sigma) dissolved in distilled water and obeyed the equation y=6012.8x−24698; 20 μl injections of solutions between 0-25 mg/ml were used.
A apparently healthy volunteer drank 6 gm of quinic acid ammonium chelate (Quinmax™) dissolved in 300 ml water over a 15 min period, samples were collected, and then about 40 ml of peripheral blood (4-red topped vacutainers) were allowed to clot at room temperature to prepare serum samples by centrifugation. The serum sampling points were 0.7 hr, 1.7 hr, 2.7 hr, 3.7 hr, 10.5 hr 12.5 hr, hr, 28 hr and 44 hr. 30 ml serum samples were precipitated with 50% ethanol, taken to dryness under a stream of air, and redissolved in 1 ml of methanol for simultaneous HPLC analysis of quinic acid and hippuric acid. The data were reported as quinic acid present in 30 ml of serum. The column used for this experiment was a C18 150×4.6 mm. The mobile phase was 0.1% trifluoroacetic (TFA). The UV detector was set at 220 nm and quinic acid eluted with a retention of 2.26 min and hippuric acid at 8.3 min. Sensitivity of the method was about 1/30=0.033 mg quinic acid/ml serum.
A single high dose of 6000 mg was administered orally to a subject, and then 30 ml serum samples were prepared from whole blood samples taken from 0.7 to 44 hours after exposure. As serum samples were precipitated with ethanol and redissolved in 1 ml […], this allowed for a 30-fold increase in concentration of any quinic acid present in each blood sample, rendering the method extremely sensitive to even small amounts of quinic acid.

Data set [4] in a line: Urinary quinic acid, hippuric acid, tryptophan and nicotinamide by HPLC. In kind it is in vivo, human. The conditions noted are these: over 9 months, Table 4 and text calculations. The protocol:
Blood samples were collected by venal puncture using vacutainers (red top, 10 ml) usually in the morning (a.m.) after 12 hours of fasting. Serum was separated from the blood clot after setting 2 hr on the bench top before centrifugation for 10 min at 1500×g. Sera prepared in this manner were stored at +4° C. until biochemical analysis usually within 1-30 days of collection. Urine samples were collected as a random 50 ml sample in the A.M. during the treatment and follow-up (after treatment for 8 months) periods. Urine was spun at 5000×g for 15 min and the supernatant stored at +4° C. until analyzed within 1 month of collection. After the first analysis all samples were further stored at −20° C. and used for repeat determinations over time. Trial design for the clinical evaluation of Aqua Bimini™ (quinic acid ammonium chelate) was carried out at Lund University beginning Apr. 28, 2006. […] Repeat serum and urine samples were collected throughout the trial period and then pooled into groups for analysis as 6 weeks before (baseline), 4 weeks of intervention (treatment, 36 days) and 8 months dry-out (no treatment). Urine samples were mixed with 1:2:4 v/v/v of: aqueous urine:95% ethanol:ethyl acetate for 10 min with vigorous shaking. The ethyl acetate layer was allowed to separate with gravity at room temperature, and then it was removed with a pipette and evaporated with an air stream to dryness in a vacuum hood. In this manner 1-2 ml of urine were reconstituted in 0.2 ml water or ethanol which represented a 5-10 fold increase in concentration. […] The urine samples were diluted 1:2:4 v/v/v with ethanol and ethyl acetate, and then the ethyl acetate fraction dried, solubilized in 0.2 ml water and used for HPLC analyses with 20 μl injections directly onto a C18 80×4.6 mm. The mobile phase was 0.2% trifluoroacetic (TFA):methanol:acetonitrile (70:30):water in a ratio 8:8:84 (v/v/v). The UV detector was set at 215 nm, and quinic acid eluted with a retention of 0.97-1.05 min and nicotinamide at 2.6-2.9 min. The detection limit in urine was about 1.5 mg/ml for quinic acid and for nicotinamide it was 0.015 mg/ml. […] The urine samples were diluted 1:2:4 v/v/v with ethanol and ethyl acetate, and then the ethyl acetate fraction dried, solubilized in 0.2 ml water and used for HPLC analyses with 20 μl injections directly onto a C18 80×4.6 mm. The mobile phase was 70:30 v/v, 0.2% TFA: 30% methanol. The UV detector was set at 225 nm. Tryptophan eluted after 5.2-5.4 min and hippuric acid after 3.1-3.4 min.

Data set [5] deals with indolediamine oxygenase (IDO). Put plainly: IDO activity from tryptophan/kynurenine molar ratio in serum (HPLC). Conditions: quinic acid supplementation in vivo; tryptophan and kynurenine in serum. The protocol:
Once tryptophan synthesis has been stimulated by the shikimate pathway, it is then further modified by catabolic metabolism via indolediamine oxygenase (IDO) first to kynurenine and/or hydroxtryptophan-serotonin and/or to quinoline-dopamine or to nicotinamde-NAD (energy). The inhibition of IDO activity by quinic acid exposure in vivo favors reduction in immunosuppressive activity. IDO activity was calculated by determining the molar ratios of tryptophan to kynurenine in 200 ul aliquots of 2 M TCA-precipitated serum by high pressure liquid chromatograph (HPLC). The HPLC method has already been published in all its details except the instrument was a HP 1100 series and the column was a XTERRA MSC18 ([…], 4.6 mm×50 mm) (Laich, A, Neurauter, […], Fuchs, D. More rapid method for simultaneous measurement of tryptophan and kyurenine by HPLC. Clinical Chemistry 48 (3): 579-580, 2002). The effect of quinic acid was further characterized on the end products of the shikimate pathway. Accordingly, quinic acid supplementation was analyzed against IDO activity through simultaneous detection of tryptophan and kynurenine. […]

For the next data set, the system named is spleen cells. As to the kind of experiment: Mouse 21 day drinking water study, spleen cell count. It is filed as in vivo, C57BL/6 female mice. Conditions: mice, after day 21 intervention in drinking water; C-Med-100 4 mg/ml (500 mg/kg), quinic acid 2 mg/ml (250 mg/kg). The protocol: C57BL/6 female mice were fed 4 mg/ml C-Med-100® or 2 mg/ml quinic acid dissolved in autoclaved tap water for 21 days. The animals were sacrificed, spleens removed and blood collected. The cell samples were analyzed in a […] Corporation, Kobe, Japan) and plasma/serum samples prepared for chemical analysis by HPLC for quinic acid and tryptophan.

Data set [6] can be described thus: Mouse 21 day drinking water study, plasma/serum HPLC. In kind it is in vivo, C57BL/6 female mice. The conditions noted are these: mice. The protocol:
[…] The animals were sacrificed, spleens removed and blood collected. The cell samples were analyzed in a […] Corporation, Kobe, Japan) and plasma/serum samples prepared for chemical analysis by HPLC for quinic acid and tryptophan.

Each structure is given as a SMILES string. Several values for one entry are separate records, joined by “and”; a condition that tells them apart may be missing. Equal values may be shown once. Where a name gives a salt, the structure may show the parent alone. Marks after values point to notes of the source that are not given here.

`O=C(O)[C@]1(O)C[C@@H](O)[C@@H](O)[C@H](O)C1` [Quinic acid sodium salt]: the “Determination of structure existing in water” value (from here on “Determination”) in data set [1] (sodium salt) is “salt”.
As for `N.N.N.O=C(O)CC(O)(C(=O)O)C(O)C(=O)O` (centres unmarked) [Hydroxy citric acid ammonium salt], the “Determination” value in data set [1] is on record as “Chelate”.
In the case of `N[C@@H](Cc1c[nH]c2ccccc12)C(=O)O` [Therapeutic tryptophan, tryptophan], the “Urinary excretion daily sample, Tryptophan (avg)” value in data set [2] is “Tryptophan. = 1.3 mg/liter^c”.
As to `O=C(O)[C@]1(O)C[C@@H](O)[C@@H](O)[C@H](O)C1` [Quinic acid potassium salt], in data set [1] (potassium salt), the “Determination” value is listed as “chelate”.
Turning to `O=C(O)[C@]1(O)C[C@@H](O)[C@@H](O)[C@H](O)C1` [quinic acid], in data set [3] (in vivo), the “fraction of total dose taken up into the serum” value is given as 0.073%, the “quinic acid found in systemic circulation” value was < 0.1 % of the administered dose and the “quinic acid of total dose taken up into the serum” value was found to be 4.4 mg. Besides, the “quinic acid either excreted or metabolized” value in data set [3] (in vivo, 44 h) worked out at 99.9%. Besides, in data set [3] (single oral dose 6000 mg), the “time of maximum uptake of quinic acid into serum” value is 10.5 h and 12.5 h. The “quinic acid dose excreted unmetabolized in the urine” value in data set [4] is 40-60%. For the same molecule, in data set [5], the IDO activity result was “inhibits IDO activity”. Also, the “In vivo spleen cells mean ± s.d.” value with spleen cells is listed as 100 ± 10^c ×10^6. Besides, the “In vivo plasma tryptophan mean ± s.d.” value in data set [6] (after day 21 intervention in drinking water, C-Med-100 4 mg/ml (500 mg/kg)) is given as 79.4 ± 2.7^c μM. For the same molecule, the “level of quinic acid, below HPLC detection” value in data set [6] (quinic acid 1 mg/ml in drinking water or about 500 mg/kg, 21 days) is less than 2000 µg/mL.
